From paper PMC5656322, “BAK1 is involved in AtRALF1-induced inhibition of root cell expansion” (PLoS Genetics, 2017)
Where no end group is shown, it is not given here.

Tests used:
BAK1 gene [1] = conditions: Arabidopsis plants; ref [10]; cited from earlier work
Source text: It has been previously shown through microarray experiments that the treatment of Arabidopsis plants with AtRALF1 causes BAK1 gene induction by approximately 1.56-fold. Our data are consistent with that previous observation and add a new gene to the list of AtRALF1-inducible genes. […] The fact that AtRALF1 peptide and BL treatment both induce BAK1 gene expression provides further evidence that BAK1 ...

[2] = tested on: Arabidopsis endodermic root cells; assay: Root cell length, endodermis of differentiation zone; assay type: in vivo, Arabidopsis thaliana; conditions: 10 μM, 2 days
Protocol: (A) and (B) Arabidopsis seedlings (2 days old) were treated with 10 μM AtRALF1 or water (H20) for 2 days. The values are the mean ± SD of at least 25 seedlings. Triple asterisks indicate P < 0.01 (Student’s t test); ns, not significant. (C) Four-day-old seedlings were transferred to media containing different concentrations of AtRALF1, and the primary root length was measured after 8 days of treatment. The data represent the mean value ± SD of 30 seedlings. […] Representative Arabidopsis seedlings after 8 days of treatment with AtRALF1 are shown below. Seedlings were arranged on plates after the treatment for imaging. Scale bars, 1 cm. (D) Two-day-old seedlings were treated with 10 μM AtRALF1 or water for 2 days, and root cell length was measured after 2 days of treatment. Cells from the root endodermis in the differentiation zone were measured. The values are the mean ± SD of approximately 150 cells. […]
Aliquots of 1 ml of medium containing seeds were distributed into 24-well plates. The peptides (10 μM) were added after 2 days, and the root length was measured 2 days after treatment. […] The root length was measured 8 days after treatment unless stated otherwise. […] Quantitative data were obtained as previously described. […] For cell length measurements, AtRALF1 peptide (10 μM) was added after 2 days of germination, and the cell length was measured after 2 days of treatment. […]

BAK1 gene [3] = assay: BAK1 gene expression in roots (semi-quantitative RT-PCR and qRT-PCR); assay type: in vivo, Arabidopsis thaliana; conditions: 1 μM, 1 h, Arabidopsis seedlings
Protocol: Arabidopsis plants were grown for 10 days in vertical plates and then treated in liquid medium containing 1 μM AtRALF1 for 1 h at room temperature. Control plants were incubated under identical conditions in a peptide-free medium. The total RNA was isolated from the roots of Arabidopsis plants using TRIzol reagent according to the manufacturer’s instructions (Life Technologies). The cDNA was synthesized using the ImProm-II Reverse Transcription System (Promega) and 1 μg of RNA. An aliquot of cDNA (1.5 μl) was used as the template in the PCR reaction, which was performed for 29 cycles, unless indicated otherwise, using gene-specific primers (S1 Table). The glyceraldehyde 3-phosphate dehydrogenase (GAPDH) gene was used as an internal control. All experiments were repeated at least three times with independent biological replicates. The data shown are from one representative experiment.
The qRT-PCR analysis was performed using 10-fold-diluted cDNA, Maxima SYBR Green Rox/qPCR Master Mix (Thermo Scientific) and a StepOne Real-Time PCR System (Applied Biosystems). The glyceraldehyde 3-phosphate dehydrogenase (GAPDH) gene was used as an internal control. […] The threshold cycle (CT) was determined by the instrument, and the ΔΔCT method was used to calculate the fold change in each gene. […] Three replicates were analyzed for each biological sample, and two biological samples were analyzed. […]

[4] = tested on: microsomal fractions from the roots of Arabidopsis; assay: Binding assay with acridinium-labeled AtRALF1, microsomal fractions; design: species or system Arabidopsis thaliana
Protocol: (A) Whole seedlings (5 days old) were treated for 15 min with acriAtRALF1 (acriR1), acriR1 and an excess of unlabeled AtRALF34 (R34), RALF1(9–49) [(R-9-49)], or AtRALF1 (R1), as indicated. The values are the mean ± SD of two measurements (5 seedlings each). (B) Microsomal fractions from wild-type and bak1 mutants were incubated for 15 min with acriAtRALF1 (acriR1), with acriR1 and an excess of unlabeled RALF1(9–49) [(R-9-49)], or with AtRALF1 (R1), as indicated. The values are the mean ± SD of two measurements. The proportions of labeled: unlabeled proteins are shown in parentheses. Single and triple asterisks indicate P < 0.1 and P < 0.01 (Student’s t test).
Arabidopsis seedlings were grown for 5 days on vertical plates. Roots were homogenized in extraction buffer [300 mM sucrose, 100 mM Tris-HCl pH 7.5, 25 mM EDTA, 25 mM NaF, 1 mM Na2MoO4, 1 mM PMSF and protease inhibitor cocktail (Roche), adjusted to pH 6.2], and the homogenate was spun at 2,000 x g for 10 min at 4 °C. The supernatant was recovered and centrifuged at 100,000 x g for 50 min at 4 °C to precipitate the microsomal pellet. The pellet was resuspended in the extraction buffer plus 0.5% Triton-X. Seedlings or microsomal fractions were placed in 200 μl of medium and incubated with 7 nM acridinium-labeled peptide (acriAtRALF1 or acriAtRALF34) and different concentrations of AtRALF1, AtRALF34 or RALF1(9–49) for 15–20 min at 4 °C on a shaker. After incubation, the seedlings or microsomal fractions were washed three times with the same medium. Unless indicated otherwise, five entire seedlings and approximately 10 ng of microsomal fractions were used per treatment. The resulting luminescence emissions from the acridinium were measured using a microplate reader (Biotec ELx 800) at 2 s after injecting 50 μl of a solution containing 20 mM H2O2 in 0.1 M NaOH. These experiments were repeated at least three times using independent biological replicates. Duplicates were used for each concentration or treatment. The data shown are from one representative experiment.

AtRALF1: root-specific RALF isoform in Arabidopsis; recombinant peptide hormone produced in E. coli (ATTKYISYQSLKRNSVPCSRRGASYYNCQNGAQANPYSRGCSKIARCRS; ends and bridges not checked; cysteine pairing not given here)
BAK1 gene induction (microarray) (BAK1 gene [1]): approximately 1.56 -fold
root cell length vs water-treated control ([2]; bak1-1, bak1-3, bak1-4): showed no difference between AtRALF1-treated plants and the water-treated control
reduction of root cell length vs water-treated control ([2]; wild-type, ~150 cells): 58%
BAK1 gene expression in roots (BAK1 gene [3]): induced BAK1 gene expression in the roots up to levels found in untreated p35S:AtRALF1 roots
share of AtRALF1 binding due to BAK1 ([4]; microsomal fractions from roots): approximately 15%
acriAtRALF1 binding reduced to, of the total ([4]; microsomal fractions of wild-type and bak1, 10-fold excess of AtRALF1): approximately 30%
acriAtRALF1 binding reduced to, of the total binding ([4]; microsomal fractions of wild-type and bak1, 100- or 500-fold excess of AtRALF1): approximately 60%
